US20220226484A1, “THERAPEUTIC PEPTIDES” (COHBAR, INC., priority 2019, published 2022)
Non-standard residues stand in square brackets, D forms with d. Primed or numbered codes have the meaning given here. No end group written: not given here. PEG12′ = not defined here

Tests used:
[1] = tested on: bleomycin-induced lung fibrosis in male C57BL/6 mice; experiment: Therapeutic mouse model of idiopathic pulmonary fibrosis (bleomycin); type: in vivo; conditions: peptide 5 mg/kg/day intraperitoneal, nintedanib 60 mg/kg/day PO
Description: The effect of the peptides on the progression of established lung fibrosis can be assessed by monitoring lung fibrosis, lung weight, inflammatory cells in bronchoalveolar lavage fluid (BALF), soluble collagen in BALF, and body weight change in a therapeutic mouse model of idiopathic pulmonary fibrosis. Lung fibrosis was induced in lungs of male C57BL/6 mice between the ages of 6 to 8 weeks by nasophayngeal administration of bleomycin (1.5 U/kg using bleomycin clinical formulation diluted in PBS). A control group of animals were administered saline by the nasopharyngeal route (no-bleomycin control group). After one week, bleomycin-treated animals were randomized to treatment groups (N=10 per group) by body weight and treated daily with vehicle control, nintedanib positive control (60 mg/kg/day PO) or peptide (5 mg/kg/day by intraperitoneal injection). After 14 days of treatment (Day 21), lungs were removed and weighed. The post-caval lobe was separated and snap frozen. The lungs were flushed with Hanks Buffer and bronchoalveolar lavage fluid (BALF) was harvested from each animal. Total BALF leukocyte were counted. Slides were prepared from the remaining BALF leukocytes, fixed and stained with May Geimsa stain and the differential counts were recorded manually. BALF was evaluated for soluble collagen using a Sircol assay. Lungs were fixed in 10% neutral buffered formalin (NBF) for histopathological analysis. Fibrosis was assessed by histopathological analysis of H&E stained mouse lungs using an Ashcroft scoring system.

[2] = tested on: DSS-induced colitis in female C57BL/6NTac mice; experiment: DSS-induced colitis mouse model of inflammatory bowel disease; type: in vivo; conditions: 3% DSS 8 days; peptides 10 mg/kg/day intraperitoneal; CsA 80 mg/kg/day oral; AUC over 8 days
Experimental: The effect of the peptides on inflammatory disease can be assessed by monitoring fecal blood, stool consistency, and body weight loss in a DSS-induced colitis mouse model. Colitis was induced in female C57BL/6NTac mice (9-11 weeks old) by continuous ad libitum oral administration of dextran sodium sulfate (DSS) 3% in sterile drinking water for 8 days. Control (No DSS) mice received sterile water instead of DSS solution. Peptides were administered intraperitoneally once daily at 10 mg/kg/day for 8 days in combination with oral DSS. […] Daily assessments included body weight loss score, fecal blood score, stool consistency score, and composite disease activity index (DAI) score, based on the first three parameters combined. Scores recorded on each day over 8 days were used to calculate area under the curve (AUC) values for each endpoint in individual animals.

H4IIE Rat Hepatoma Cells = experiment: Insulin-dependent effect on glucose production by cultured rat liver cells; type: cell-based; conditions: 24 hour
Experimental: The effect of the peptides on glucose production was assessed in the absence and presence of insulin using an assay of glucose levels in cultured cells such as rat hepatocytes. Peptides were initially prepared as 10 mM stock in DMSO and used at a final concentration of 10 μM (0.1% DMSO). Insulin (800 pM) was used as a partial inhibitor of glucose production. H4-IIE cells purchased from ATCC (Manassas, Va.) were seeded at 100,000 cells/well in standard medium (DMEM/high glucose+10% FBS+1× Glutamax+antibiotics) on 96-well plates and allowed to adhere overnight at 37° C. in a humidified atmosphere of 5% CO2/95% air. Approximately 24 h after seeding, the medium was removed, cells rinsed with glucose free DMEM, and Glucose Production Medium (glucose free DMEM+2 mM sodium pyruvate+10 mM sodium lactate) was added. The cultures were placed at 37° C. in a humidified atmosphere of 5% CO2/95% air overnight. The next morning, the medium was removed and fresh Glucose Production Medium containing compounds was added. Insulin at 800 pM was added to control wells. Peptides (10 μM) in the absence or presence of insulin (800 pM) were added to test wells. Cells in the presence of compounds were placed at 37° C. in a humidified atmosphere of 5% CO2/95% air overnight. After 24 hour incubation, conditioned medium from each well was transferred to a fresh 96-well plate for quantitation of glucose content. Quantitation of glucose levels was determined using an Amplex Red Glucose Assay kit (Abacm; Cambridge, Mass.) according to the manufacturer's instructions using a Cytation 3 plate reader at 570 nm (BioTek, Winooski, Vt.). Absorbance values were expressed as a percent of untreated control cells (maximum glucose production) for peptide alone samples or insulin (800 pM) for peptides in the presence of insulin (800 pM. Glucose levels for insulin (800 pM) treatment were ˜80-90% of the untreated control values. The results are reported in Table 15.

3T3-L1 Mouse Adipocytes = experiment: Insulin-dependent effect on free fatty acid levels in cultured mouse adipocytes; type: cell-based; conditions: 3 hours
Experimental: The effect of the peptides on fatty acid metabolism was assessed in the absence and presence of insulin using an assay of free fatty acid levels in cultured cells such as mouse adipocytes. Peptides were initially prepared as 10 mM stock in DMSO and used at a final concentration of 10 μM (0.1% DMSO). […] Insulin (0.25 nM) was used as a partial inhibitor and insulin (10 nM) was used as a potent inhibitor of isoproterenol stimulated fatty acid production. Mouse 3T3-L1 cells purchased from ZenBio (Research Triangle Park, N.C.) were seeded at 3,000 cells per well on 96-well plates in Pre-Adipocyte Medium (Zen-Bio) and grown to confluence at 37° C. in a humidified atmosphere of 5% CO2/95% air. Two days after confluence, cells were placed in Adipocyte Differentiation Medium (Zen-Bio) and cultured for three additional days at 37° C. in a humidified atmosphere of 5% CO2/95% air. The culture medium was then partially replaced with Adipocyte Maintenance Medium (Zen-Bio) and the cells maintained at 37° C. in a humidified atmosphere of 5% CO2/95% air with partial medium replacement every other day. At 12 day of differentiation, 96-well cultures were transferred to Adipocyte Maintenance Medium without insulin and placed at 37° C. in a humidified atmosphere of 5% CO2/95% air for two days. Following this incubation period, the medium was removed from 14 day differentiated cultures and replaced with Assay Buffer (Zen-Bio) containing peptides (10 μM), insulin (0.25 nM or 10 nM), isoproterenol (0.1 nM) as appropriate. […] isoproterenol was added to all wells except untreated controls. Insulin at 0.1 nM and 10 nM was added to control wells. Peptides (10 μM) in the absence or presence of insulin (0.25 nM) were added to test wells. Cells in the presence of compounds were placed at 37° C. in a humidified atmosphere of 5% CO2/95% air for 3 hours. At the end of the final 3 h incubation, conditioned assay buffer was removed from each well and place in a fresh 96-well plate for quantitation of free fatty acid content. Free fatty acid concentrations in the assay buffer samples were determined using a Free Fatty Acid Assay kit (Zen-Bio) according to the manufacturer's instructions using a Cytation 3 plate reader at 540 nm (BioTek, Winooski, VD. Absorbance values were corrected for untreated background and expressed as a percent of isoproterenol (0.1 nM) treated control cells for peptides alone or isoproterenol (0.1 nM)+insulin (0.25 nM) for peptides in presence of insulin (0.25 nM). Treatment with isoproterenol […] alone was used as the free fatty acid level stimulatory control. The relative standard deviation of the isoproterenol control was <10%. […] Free fatty acid levels for insulin (10 nM) treatment were <5% of the isoproterenol control value. Free fatty acid levels for insulin (0.25 nM) treatment were 60-80% of the isoproterenol control value.

With `COC(=O)c1ccc2c(c1)NC(=O)/C2=C(\Nc1ccc(N(C)C(=O)CN2CCN(C)CC2)cc1)c1ccccc1` [Nintedanib, nintedanib, reference compound] the “Mean (SEM) Leukocyte Count in BALF (Percent of Bleomycin Control)” value ([1]; Day 21, 14 days of treatment) was 62.4 (6.08) Percent, the “Mean (SEM) Lung Weight (Percent of Bleomycin Control)” value ([1]; Day 21, 14 days of treatment) was 75.2 (6.04) Percent and the “Mean (SEM) Percent Body Weight Change from Baseline” value ([1]; Day 21, 14 days of treatment) was −7.95 (6.09) Percent. The “Mean (SEM) Collagen Content in BALF (Percent of Bleomycin Control)” value ([1]; Sircol assay, Day 21) was 44.0 (6.48) Percent and the “Mean (SEM) Ashcroft Score (Percent of Bleomycin Control)” value ([1]; histopathology, Day 21) was 78.70 (9.72) Percent.
“RVIRACLGVGLLGDL(dA)GK{PEG12} [SEQ ID NO: 29] (RVIRACLGVGLLGDL[dA]GK(PEG12′))” was tested, and the “Mean (SEM) Body Weight Loss Score AUC” value [2] was 2.10 (0.76), the “Mean (SEM) Composite Disease Activity Index (DAI) Score AUC” value [2] was 19.8 (1.99) and the “Mean (SEM) Fecal Blood Score AUC” value [2] was 12.8 (1.04). For the same compound, the “Mean (SEM) Stool Consistency Score AUC” value [2] was 5.05 (0.78).
For “RVIRACLGVGLLGDL(dA)GK{PEG12} [SEQ ID NO: 30] (RVIRACLGVGLLGDL[dA]GK(PEG12′); not fully specified; printed as RVIRACLGVGLLGDL(dA)GK{PEG12}) [possibly the dimer of this chain]”, the “Mean (SEM) Body Weight Loss Score AUC” value [2] was 0.95 (0.69), the “Mean (SEM) Composite Disease Activity Index (DAI) Score AUC” value [2] was 14.9 (0.86) and the “Mean (SEM) Fecal Blood Score AUC” value [2] was 9.30 (0.44). For the same compound, the “Mean (SEM) Stool Consistency Score AUC” value [2] was 4.65 (0.48).
“RVIRMCLNNGLNGEL(dA)G (RVIRMCLNNGLNGEL[dA]G) [SEQ ID NO: 22]” was tested, and the “Glucose Levels, MEAN % Control, +Insulin” value (H4IIE Rat Hepatoma Cells; peptide 10 μM + insulin 800 pM, percent of insulin (800 pM)) was 0.5%, the “Glucose Levels, MEAN % Control, −Insulin” value (H4IIE Rat Hepatoma Cells; peptide 10 μM alone, percent of untreated control cells) was -0.4% and the “Free Fatty Acid Levels, MEAN % ISO, +Insulin” value (3T3-L1 Mouse Adipocytes; peptide 10 μM + insulin 0.25 nM, percent of isoproterenol (0.1 nM)+insulin (0.25 nM)) was 25.3%. For the same compound, the “Free Fatty Acid Levels, MEAN % ISO, −Insulin” value (3T3-L1 Mouse Adipocytes; peptide 10 μM alone, percent of isoproterenol (0.1 nM) treated control cells) was 93.6%.
